In patent US12421243B2, “Pharmaceutically effective compounds inhibiting selectively the myosin 2 isoforms” (PRINTNET KERESKEDELMI ÉS SZOLGÁLTATÓ KFT., priority 2018, dated 2025):

Assays:
[1] = target: recombinant Dictyostelium miozin (Dictyostelium) (Dictyostelium discoideum, UniProt P08799); assay: actomyosin steady state ATPase measurement, Dictyostelium myosin; format: biochemical; conditions: for IC50: concentration required for semi-maximal inhibition of ATPase, read-out: IC50 (μM) Dicty; for % inhibition. complete Dicty: maximum value of inhibition of ATPase activity; for inhibition at 5 µM: read-out: % inhibition at 5 μM (or 10 μM if racemate) Dicty; for inhibition at 50 µM: read-out: % inhibition at 50 μM (or 100 μM if racemate) Dicty
Description: (§1) […]; (ii) the concentration required for semi-maximal inhibition.

[2] = target: T1, isolated porcine cardiac ventricular myocardium (cardiac) (Sus scrofa, UniProt P79293); assay: actomyosin steady state ATPase measurement, cardiac myosin; format: biochemical; conditions: for IC50: concentration required for semi-maximal inhibition of ATPase; for % inhibition. complete cardiac: maximum value of inhibition of ATPase activity; for inhibition at 5 µM: read-out: % inhibition at 5 μM (or 10 μM if racemate) cardiac, 5 μM (10 μM if racemate); for inhibition at 5 µM / inhibition at 50 µM: ATPase activity; for inhibition at 50 µM: read-out: % inhibition at 50 μM (or 100 μM if racemate) cardiac, 50 μM (100 μM if racemate)
T1 construct: isolated porcine cardiac ventricular myocardium (cardiac); from tissue; host or cells: porcine cardiac ventricle
Description: as §1

[3] = tested on: isolated rabbit skeletal muscle myosin (skeletal); assay: actomyosin steady state ATPase measurement, skeletal muscle myosin; format: biochemical; conditions: for % inhibition at 5 μM (or 10 μM if racemate) Skeletal: 5 μM (10 μM if racemate); for % inhibition at 5 μM (or 10 μM if racemate) Skeletal / % inhibition at 50 μM (or 100 μM if racemate) Skeletal: ATPase activity; for % inhibition at 50 μM (or 100 μM if racemate) Skeletal: 50 μM (100 μM if racemate); for IC50: concentration required for semi-maximal inhibition of ATPase; for % inhibition. complete Skeletal: maximum value of inhibition of ATPase activity; for Inhibition (%) skeletal: maximum inhibition, compounds in IC50 range 1-2 μM
Description: as §1

[4] = target: isolated smooth muscle myosin (UniProt P10587); format: biochemical, chamois; conditions: concentration required for semi-maximal inhibition of ATPase
Description: (ii) the concentration required for semi-maximal inhibition.

[5] = target: isolated smooth muscle myosin (UniProt P10587); format: biochemical, chamois; conditions: for % inhibition at 5 μM (or 10 μM if racemate) Smooth: 5 μM (10 μM if racemate); for % inhibition at 5 μM (or 10 μM if racemate) Smooth / % inhibition at 50 μM (or 100 μM if racemate) Smooth: ATPase activity; for % inhibition at 50 μM (or 100 μM if racemate) Smooth: 50 μM (100 μM if racemate); for % inhibition. complete Smooth: maximum value of inhibition of ATPase activity

T1 sequence (P79293 whole entry): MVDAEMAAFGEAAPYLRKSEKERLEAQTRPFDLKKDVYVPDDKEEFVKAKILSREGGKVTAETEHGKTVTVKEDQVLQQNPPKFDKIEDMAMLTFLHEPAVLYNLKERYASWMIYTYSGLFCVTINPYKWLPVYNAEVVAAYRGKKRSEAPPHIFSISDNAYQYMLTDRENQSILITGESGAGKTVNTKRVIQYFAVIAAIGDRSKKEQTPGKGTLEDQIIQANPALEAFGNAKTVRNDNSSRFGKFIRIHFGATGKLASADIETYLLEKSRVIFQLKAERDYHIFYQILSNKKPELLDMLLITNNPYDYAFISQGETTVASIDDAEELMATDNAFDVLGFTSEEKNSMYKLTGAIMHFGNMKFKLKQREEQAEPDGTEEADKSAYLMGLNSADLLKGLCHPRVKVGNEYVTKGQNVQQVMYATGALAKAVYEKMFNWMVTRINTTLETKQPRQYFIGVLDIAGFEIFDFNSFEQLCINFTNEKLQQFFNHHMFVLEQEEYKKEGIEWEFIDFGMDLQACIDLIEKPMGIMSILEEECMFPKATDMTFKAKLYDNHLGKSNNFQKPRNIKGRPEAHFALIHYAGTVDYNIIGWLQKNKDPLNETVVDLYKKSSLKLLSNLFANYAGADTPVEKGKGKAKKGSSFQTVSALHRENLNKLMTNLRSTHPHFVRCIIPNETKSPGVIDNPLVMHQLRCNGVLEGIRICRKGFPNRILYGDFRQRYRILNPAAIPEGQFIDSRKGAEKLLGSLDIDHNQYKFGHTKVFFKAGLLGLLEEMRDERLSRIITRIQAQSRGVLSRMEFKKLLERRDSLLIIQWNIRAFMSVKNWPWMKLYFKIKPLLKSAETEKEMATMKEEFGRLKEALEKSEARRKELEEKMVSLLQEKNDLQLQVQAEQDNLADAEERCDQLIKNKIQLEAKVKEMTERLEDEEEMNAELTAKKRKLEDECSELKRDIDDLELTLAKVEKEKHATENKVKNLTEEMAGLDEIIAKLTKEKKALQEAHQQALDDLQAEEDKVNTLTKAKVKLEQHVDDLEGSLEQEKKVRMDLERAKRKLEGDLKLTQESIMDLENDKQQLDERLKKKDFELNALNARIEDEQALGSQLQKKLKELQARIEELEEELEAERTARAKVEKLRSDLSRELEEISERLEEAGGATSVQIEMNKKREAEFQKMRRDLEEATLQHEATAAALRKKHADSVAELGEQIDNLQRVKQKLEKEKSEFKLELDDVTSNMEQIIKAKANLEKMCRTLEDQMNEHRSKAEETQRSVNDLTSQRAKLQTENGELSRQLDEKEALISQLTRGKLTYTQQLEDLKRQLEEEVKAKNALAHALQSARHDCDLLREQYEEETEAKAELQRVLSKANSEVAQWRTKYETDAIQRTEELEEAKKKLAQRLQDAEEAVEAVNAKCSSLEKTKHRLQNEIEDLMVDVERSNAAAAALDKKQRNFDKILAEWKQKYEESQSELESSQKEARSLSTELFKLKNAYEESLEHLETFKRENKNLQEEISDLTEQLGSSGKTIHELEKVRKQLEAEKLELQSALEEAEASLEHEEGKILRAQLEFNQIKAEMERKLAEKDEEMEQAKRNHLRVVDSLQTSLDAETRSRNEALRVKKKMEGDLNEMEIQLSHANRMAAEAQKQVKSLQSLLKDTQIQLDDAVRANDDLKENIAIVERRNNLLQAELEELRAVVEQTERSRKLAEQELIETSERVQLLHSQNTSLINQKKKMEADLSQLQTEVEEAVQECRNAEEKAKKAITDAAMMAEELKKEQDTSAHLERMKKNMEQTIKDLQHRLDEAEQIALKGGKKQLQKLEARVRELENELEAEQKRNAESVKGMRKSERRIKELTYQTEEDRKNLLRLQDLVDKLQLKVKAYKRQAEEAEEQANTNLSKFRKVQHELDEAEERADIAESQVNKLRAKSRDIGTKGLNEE
isolated smooth muscle myosin, sequence (P10587 whole entry): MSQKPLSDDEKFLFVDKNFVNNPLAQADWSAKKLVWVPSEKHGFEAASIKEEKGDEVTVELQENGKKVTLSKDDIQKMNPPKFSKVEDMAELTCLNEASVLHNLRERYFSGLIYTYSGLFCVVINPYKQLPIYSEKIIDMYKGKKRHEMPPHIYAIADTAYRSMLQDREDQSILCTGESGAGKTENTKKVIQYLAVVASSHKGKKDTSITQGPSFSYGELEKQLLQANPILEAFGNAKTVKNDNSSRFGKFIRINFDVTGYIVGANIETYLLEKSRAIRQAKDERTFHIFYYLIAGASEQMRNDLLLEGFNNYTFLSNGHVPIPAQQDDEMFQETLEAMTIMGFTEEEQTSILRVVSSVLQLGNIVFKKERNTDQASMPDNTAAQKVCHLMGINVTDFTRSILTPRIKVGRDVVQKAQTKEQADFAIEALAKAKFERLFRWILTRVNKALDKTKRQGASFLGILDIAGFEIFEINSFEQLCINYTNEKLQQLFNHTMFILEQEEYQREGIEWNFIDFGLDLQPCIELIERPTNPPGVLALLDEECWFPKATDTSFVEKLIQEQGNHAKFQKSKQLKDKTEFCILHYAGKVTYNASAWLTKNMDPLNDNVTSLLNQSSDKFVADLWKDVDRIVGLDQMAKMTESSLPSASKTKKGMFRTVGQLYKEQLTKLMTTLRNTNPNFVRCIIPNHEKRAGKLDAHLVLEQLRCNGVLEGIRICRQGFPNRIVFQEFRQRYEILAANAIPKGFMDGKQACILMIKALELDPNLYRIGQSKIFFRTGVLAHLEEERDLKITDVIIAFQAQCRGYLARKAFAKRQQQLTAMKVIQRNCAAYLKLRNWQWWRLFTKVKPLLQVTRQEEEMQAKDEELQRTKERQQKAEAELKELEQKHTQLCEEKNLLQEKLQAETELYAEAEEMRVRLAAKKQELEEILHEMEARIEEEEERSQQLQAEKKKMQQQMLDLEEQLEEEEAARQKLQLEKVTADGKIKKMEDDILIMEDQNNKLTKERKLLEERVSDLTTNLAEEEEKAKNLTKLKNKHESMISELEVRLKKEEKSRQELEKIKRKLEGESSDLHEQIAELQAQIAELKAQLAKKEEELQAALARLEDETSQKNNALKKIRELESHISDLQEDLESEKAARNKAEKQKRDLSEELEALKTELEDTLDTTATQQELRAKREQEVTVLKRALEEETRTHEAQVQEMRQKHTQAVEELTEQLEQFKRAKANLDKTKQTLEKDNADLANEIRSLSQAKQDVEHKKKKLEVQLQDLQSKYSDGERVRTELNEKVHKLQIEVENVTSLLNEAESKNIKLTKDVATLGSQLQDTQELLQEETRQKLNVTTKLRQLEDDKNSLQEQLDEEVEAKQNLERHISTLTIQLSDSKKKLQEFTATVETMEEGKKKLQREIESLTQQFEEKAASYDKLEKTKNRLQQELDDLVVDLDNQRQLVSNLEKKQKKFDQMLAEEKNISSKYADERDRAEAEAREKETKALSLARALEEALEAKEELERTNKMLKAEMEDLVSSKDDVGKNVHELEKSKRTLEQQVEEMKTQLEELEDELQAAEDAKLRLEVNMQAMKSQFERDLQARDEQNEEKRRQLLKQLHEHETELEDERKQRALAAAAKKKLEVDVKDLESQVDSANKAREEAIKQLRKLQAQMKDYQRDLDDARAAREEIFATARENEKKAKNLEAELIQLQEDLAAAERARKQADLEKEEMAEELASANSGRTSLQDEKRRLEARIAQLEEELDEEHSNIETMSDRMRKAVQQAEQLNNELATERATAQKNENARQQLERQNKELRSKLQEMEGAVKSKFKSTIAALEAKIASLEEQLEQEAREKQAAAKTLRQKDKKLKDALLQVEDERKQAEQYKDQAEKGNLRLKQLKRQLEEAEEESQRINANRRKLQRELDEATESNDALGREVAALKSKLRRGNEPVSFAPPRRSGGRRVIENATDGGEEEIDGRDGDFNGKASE

SMILES	IC50 [1]	% inhibition. complete Dicty [1]	inhibition at 5 µM [1]	inhibition at 50 µM [1]	IC50 [2]	% inhibition. complete cardiac [2]	inhibition at 5 µM [2]	inhibition at 50 µM [2]	% inhibition at 5 μM (or 10 μM if racemate) Skeletal [3]	% inhibition at 50 μM (or 100 μM if racemate) Skeletal [3]	IC50 [3]	% inhibition. complete Skeletal [3]	IC50 [4]	% inhibition at 5 μM (or 10 μM if racemate) Smooth [5]	% inhibition at 50 μM (or 100 μM if racemate) Smooth [5]	% inhibition. complete Smooth [5]	Inhibition (%) skeletal [3]	Inhibition (%) cardiac ([2]; maximum inhibition, compounds in IC50 range 3-6 μM)
Cc1ccc(N2CCC3(O)C(=O)c4ccncc4N=C23)cc1 (stereo not drawn) [Compound 247, 1-[4-(Methyl)phenyl]-3a-hydroxy-1H,2H,3H,3aH,4H-pyrrolo[2,3-b]1,7-naphthyridin-4-one]	71 µM	54%	4%	22%	31 µM	70%	9%	43%	74%	96%	1.7 µM	99%	44 µM	3%	15%	29%	–	–
O=C1c2ccncc2N=C2N(c3ccc(N4CCOCC4)cc3)CCC12O (stereo not drawn) [Compound 248, 3a-Hydroxy-1-[4-(morpholin-4-yl)phenyl]-1H,2H,3H,3aH,4H-pyrrolo[2,3-b]1,7-naphthyridin-4-one]	> 100 µM	100%	0%	7%	> 100 µM	2%	4%	1%	21%	56%	12 µM	70%	> 100 µM	1%	0%	0%	–	–
CN(C)c1ccc(N2CC[C@@]3(O)C(=O)c4ccsc4N=C23)cc1 [Compound 249, (9S)-12-[4-(dimethylamino)phenyl]-9-hydroxy-4-thia-2,12-diazatricyclo[7.3.0.0^3,7]dodeca-1,3(7),5-trien-8-one]	10 µM	47%	15%	39%	35 µM	90%	11%	52%	80%	97%	1.2 µM	100%	13 µM	19%	55%	69%	100%	–
CN(C)c1ccc(N2CCC3(O)C(=O)c4ccncc4N=C23)cc1 (stereo not drawn) [Compound 251, 1-[4-(Dimethylamino)phenyl]-3a-hydroxy-1H,2H,3H,3aH,4H-pyrrolo[2,3-b]1,7-naphthyridin-4-one]	> 100 µM	–	1%	1%	6 µM	15%	6%	13%	47%	85%	4.8 µM	93%	> 100 µM	0%	25%	100%	–	15%
O=C1c2ccncc2N=C2NCCC12O (stereo not drawn) [Compound 255, 3a-Hydroxy-1H,2H,3H,3aH,4H-pyrrolo[2,3-b]1,7-naphthyridin-4-one]	42 µM	33%	4%	18%	1 µM	–	7%	7%	6%	7%	1.7 µM	7%	1 µM	3%	3%	3%	7%	–
